Experiments:
PIKFYVE = PIKFYVE (Homo sapiens, UniProt Q9Y2I7); assay: SelectScreen Kinase Profiling Service (PIPK profiling); type: biochemical; conditions: [ATP] 100 μM; 1 μM (concentration stated for UNI418 only)
Excerpt: (§1) UNI418 has a core structure consisting of 4-quinazolinamine (Fig. 1a, green), which is often found in kinase inhibitors. […] The phosphoinositide (PI) system is a crucial regulatory mechanism in membrane trafficking and is tightly regulated through phosphorylation cascades by multiple phosphatidylinositol phosphate kinases (PIPKs)[30]. We hypothesized that UNI418 may inhibit PIPK(s) and performed PIPK profiling analysis. […] To test whether UNI418 interacts with PIP5K1C and PIKfyve, we performed a CETSA, which determines the characteristics of protein stabilization upon ligand binding to the target protein[31]. UNI418- or DMSO-treated cell lysates were incubated at different temperatures, and the presence of the target protein in the soluble fraction was analyzed by Western blotting (Fig. 1c).
(§2) Fig. 1 UNI418 specifically targets PIP5K1 and PIKfyve. a Chemical structure of UNI418. The 4-quinazolinamine core is highlighted in green. b Table of the kinase profiling analysis. Inhibition of several kinases was determined at a 1 μM concentration of UNI418 and analyzed by the SelectScreen Kinase Profiling Service (Thermo Fisher Scientific). c Cellular thermal shift assay. Ectopically expressed GFP-PIP5K1C and GFP-PIKfyve were heated to the indicated temperatures with/without UNI418, and the presence of protein in the soluble fraction was analyzed by Western blot analysis. TEXT PRINTED IN THE PICTURE: (b) UNI418: % Inhibition (mean): 11 ([ATP] Tested (μM): 10; Kinase Tested: PI4K2A (PI4K2 alpha)); % Inhibition (mean): 4 ([ATP] Tested (μM): 10; Kinase Tested: PI4K2B (PI4K2 beta)); % Inhibition (mean): -6 ([ATP] Tested (μM): 10; Kinase Tested: PI4KA (PI4K alpha)); % Inhibition (mean): 48 ([ATP] Tested (μM): Km app; Kinase Tested: PI4KB (PI4K beta)); % Inhibition (mean): 20 ([ATP] Tested (μM): 10; Kinase Tested: PIK3C2B (PI3K-C2 beta)); % Inhibition (mean): 22 ([ATP] Tested (μM): 10; Kinase Tested: PIK3C2G (PI3K-C2 gamma)); % Inhibition (mean): 4 ([ATP] Tested (μM): 100; Kinase Tested: PIK3C3 (hVPS34)); % Inhibition (mean): 8 ([ATP] Tested (μM): 10; Kinase Tested: PIK3CA/PIK3R3 (p110 alpha/p55 gamma)); % Inhibition (mean): 7 ([ATP] Tested (μM): 10; Kinase Tested: PIK3CB/PIK3R2 (p110 beta/p85 beta)); % Inhibition (mean): 9 ([ATP] Tested (μM): 10; Kinase Tested: PIP4K2A); % Inhibition (mean): 67 ([ATP] Tested (μM): 10; Kinase Tested: PIP5K1A); % Inhibition (mean): 93 ([ATP] Tested (μM): 10; Kinase Tested: PIP5K1B); % Inhibition (mean): 93 ([ATP] Tested (μM): 10; Kinase Tested: PIP5K1C); % Inhibition (mean): 100 ([ATP] Tested (μM): 100; Kinase Tested: PIKFYVE) | (b) Apilimod: % Inhibition (mean): 100 ([ATP] Tested (μM): 100; Kinase Tested: PIKFYVE) […]

[1] = tested on: SARS-CoV-2 spike protein (Spike-HexaPro); type: cell-based
PIP5K1C = PIP5K1C (Homo sapiens, UniProt O60331); assay: SelectScreen Kinase Profiling Service (single point and 10 point titration); type: biochemical
PIP5K1C, sequence (O60331 whole entry): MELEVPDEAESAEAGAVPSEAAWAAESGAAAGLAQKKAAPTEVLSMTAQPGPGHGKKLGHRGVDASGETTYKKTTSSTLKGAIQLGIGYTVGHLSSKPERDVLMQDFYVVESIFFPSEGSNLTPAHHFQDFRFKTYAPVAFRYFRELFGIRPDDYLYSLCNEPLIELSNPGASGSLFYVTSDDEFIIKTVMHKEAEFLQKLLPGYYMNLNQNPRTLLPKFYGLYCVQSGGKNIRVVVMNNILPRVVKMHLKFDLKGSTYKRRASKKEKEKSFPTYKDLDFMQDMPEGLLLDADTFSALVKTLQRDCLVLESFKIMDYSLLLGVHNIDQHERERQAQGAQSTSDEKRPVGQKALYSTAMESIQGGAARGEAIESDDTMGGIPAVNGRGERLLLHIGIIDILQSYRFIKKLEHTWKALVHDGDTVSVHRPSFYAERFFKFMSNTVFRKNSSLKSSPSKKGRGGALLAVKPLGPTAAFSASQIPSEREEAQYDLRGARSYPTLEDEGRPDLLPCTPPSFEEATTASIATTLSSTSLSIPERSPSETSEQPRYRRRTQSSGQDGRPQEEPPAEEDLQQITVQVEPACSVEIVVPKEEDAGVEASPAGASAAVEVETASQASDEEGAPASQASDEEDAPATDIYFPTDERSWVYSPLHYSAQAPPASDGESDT
Excerpt: as §1, §2
(§3) Supplementary Fig. 2 UNI418 inhibits PIP5K1B/C and PIKfyve. a Inhibition graph of PIP5K1 kinases at the 10 point titration with UNI418. IC 50 value of PIP5K1 kinases was analyzed by Thermo Fisher Scientific’s SelectScreen kinase profiling service. b Kd (nM) values of PIP5K1C and PIKfyve inhibition were determined using the Eurofins kinase assay service.
(§4) (1 picture or pasted object on this page, not shown here)

PIP5K1B = PIP5K1B (Homo sapiens, UniProt O14986); assay: as above; type: biochemical
PIP5K1B, sequence (O14986 whole entry): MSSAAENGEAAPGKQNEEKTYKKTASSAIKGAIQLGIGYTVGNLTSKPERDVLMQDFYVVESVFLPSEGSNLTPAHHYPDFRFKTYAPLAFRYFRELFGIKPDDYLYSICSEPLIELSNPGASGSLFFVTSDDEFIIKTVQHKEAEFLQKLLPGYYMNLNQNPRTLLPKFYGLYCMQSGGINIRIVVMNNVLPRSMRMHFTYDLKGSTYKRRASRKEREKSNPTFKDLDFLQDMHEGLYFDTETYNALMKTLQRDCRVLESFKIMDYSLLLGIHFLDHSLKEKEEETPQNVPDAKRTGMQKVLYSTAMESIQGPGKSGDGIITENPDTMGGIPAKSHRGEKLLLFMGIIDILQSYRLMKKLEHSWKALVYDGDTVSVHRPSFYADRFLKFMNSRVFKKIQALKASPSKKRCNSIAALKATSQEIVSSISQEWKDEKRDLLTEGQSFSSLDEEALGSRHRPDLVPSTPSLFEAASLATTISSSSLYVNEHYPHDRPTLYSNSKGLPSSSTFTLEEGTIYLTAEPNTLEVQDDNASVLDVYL
Excerpt: as §1, §2, §3, §4

PIP5K1A = PIP5K1A (Homo sapiens, UniProt Q99755); assay: as above; type: biochemical
PIP5K1A, sequence (Q99755 whole entry): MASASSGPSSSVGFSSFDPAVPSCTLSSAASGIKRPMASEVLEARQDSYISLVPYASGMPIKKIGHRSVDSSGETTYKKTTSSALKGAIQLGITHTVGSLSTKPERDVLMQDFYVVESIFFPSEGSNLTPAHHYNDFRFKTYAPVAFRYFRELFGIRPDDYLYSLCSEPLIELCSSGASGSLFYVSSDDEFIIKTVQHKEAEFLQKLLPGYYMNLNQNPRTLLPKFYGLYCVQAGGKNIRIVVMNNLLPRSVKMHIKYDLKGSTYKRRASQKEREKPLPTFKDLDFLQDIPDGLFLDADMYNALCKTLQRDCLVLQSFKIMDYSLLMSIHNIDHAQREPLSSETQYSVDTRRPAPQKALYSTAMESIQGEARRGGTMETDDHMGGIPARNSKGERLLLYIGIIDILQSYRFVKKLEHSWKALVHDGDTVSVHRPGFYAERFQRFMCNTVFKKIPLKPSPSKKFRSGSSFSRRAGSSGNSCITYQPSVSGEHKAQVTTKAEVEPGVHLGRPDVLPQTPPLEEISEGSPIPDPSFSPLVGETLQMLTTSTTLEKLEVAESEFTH
Excerpt: as §1, §2, §3, §4

RPE1 cells = assay: Autophagic flux assay (LC3-II turnover with bafilomycin A1); type: cell-based; conditions: 1 μM, 2 h, normal growth media
Excerpt: Fig. 2 UNI418 inhibits autophagy. a Western blot analysis of p62, LC3B-I, LC3B-II and GAPDH in the presence of UNC3230, apilimod and UNI418. b Immunofluorescence staining with LC3B (green) and p62 (red) antibodies upon treatment with UNC3230, apilimod and UNI418, and images within the white rectangular boxes are magnified on the right side. Scale bar, 20 µm. c The area of fluorescence intensity from immunofluorescence images (b) was quantified after UNC3230, apilimod and UNI418 treatments. d, e Quantification of autophagic flux under normal conditions and under HBSS-induced starvation conditions with or without UNI418 treatment. […]
The whole cell extracts were prepared by lysis of harvested cells with M -PER Mammalian protein extraction reagent (Thermo Fisher Scientific). The protein concentrations were determined by Bradford protein assay (Bio- Rad). […] The images were obtained and quantified by Fusion solo ChemiDoc system (Vilber).
Autophagic flux assay was analyzed essentially as previously described1,2.
Briefly, RPE1 cells were treated with UNI418 (0, 0.5, or 1 µM) for 2 h with/without bafilomycin A1 to inhibit lysosomal degradation under normal growth media or HBSS. […] The LC3- II bands were quantified using Fusion Solo ChemiDoc system (Vilber) and normalized to GAPDH bands. […]

PIKFYVE, sequence (Q9Y2I7 whole entry): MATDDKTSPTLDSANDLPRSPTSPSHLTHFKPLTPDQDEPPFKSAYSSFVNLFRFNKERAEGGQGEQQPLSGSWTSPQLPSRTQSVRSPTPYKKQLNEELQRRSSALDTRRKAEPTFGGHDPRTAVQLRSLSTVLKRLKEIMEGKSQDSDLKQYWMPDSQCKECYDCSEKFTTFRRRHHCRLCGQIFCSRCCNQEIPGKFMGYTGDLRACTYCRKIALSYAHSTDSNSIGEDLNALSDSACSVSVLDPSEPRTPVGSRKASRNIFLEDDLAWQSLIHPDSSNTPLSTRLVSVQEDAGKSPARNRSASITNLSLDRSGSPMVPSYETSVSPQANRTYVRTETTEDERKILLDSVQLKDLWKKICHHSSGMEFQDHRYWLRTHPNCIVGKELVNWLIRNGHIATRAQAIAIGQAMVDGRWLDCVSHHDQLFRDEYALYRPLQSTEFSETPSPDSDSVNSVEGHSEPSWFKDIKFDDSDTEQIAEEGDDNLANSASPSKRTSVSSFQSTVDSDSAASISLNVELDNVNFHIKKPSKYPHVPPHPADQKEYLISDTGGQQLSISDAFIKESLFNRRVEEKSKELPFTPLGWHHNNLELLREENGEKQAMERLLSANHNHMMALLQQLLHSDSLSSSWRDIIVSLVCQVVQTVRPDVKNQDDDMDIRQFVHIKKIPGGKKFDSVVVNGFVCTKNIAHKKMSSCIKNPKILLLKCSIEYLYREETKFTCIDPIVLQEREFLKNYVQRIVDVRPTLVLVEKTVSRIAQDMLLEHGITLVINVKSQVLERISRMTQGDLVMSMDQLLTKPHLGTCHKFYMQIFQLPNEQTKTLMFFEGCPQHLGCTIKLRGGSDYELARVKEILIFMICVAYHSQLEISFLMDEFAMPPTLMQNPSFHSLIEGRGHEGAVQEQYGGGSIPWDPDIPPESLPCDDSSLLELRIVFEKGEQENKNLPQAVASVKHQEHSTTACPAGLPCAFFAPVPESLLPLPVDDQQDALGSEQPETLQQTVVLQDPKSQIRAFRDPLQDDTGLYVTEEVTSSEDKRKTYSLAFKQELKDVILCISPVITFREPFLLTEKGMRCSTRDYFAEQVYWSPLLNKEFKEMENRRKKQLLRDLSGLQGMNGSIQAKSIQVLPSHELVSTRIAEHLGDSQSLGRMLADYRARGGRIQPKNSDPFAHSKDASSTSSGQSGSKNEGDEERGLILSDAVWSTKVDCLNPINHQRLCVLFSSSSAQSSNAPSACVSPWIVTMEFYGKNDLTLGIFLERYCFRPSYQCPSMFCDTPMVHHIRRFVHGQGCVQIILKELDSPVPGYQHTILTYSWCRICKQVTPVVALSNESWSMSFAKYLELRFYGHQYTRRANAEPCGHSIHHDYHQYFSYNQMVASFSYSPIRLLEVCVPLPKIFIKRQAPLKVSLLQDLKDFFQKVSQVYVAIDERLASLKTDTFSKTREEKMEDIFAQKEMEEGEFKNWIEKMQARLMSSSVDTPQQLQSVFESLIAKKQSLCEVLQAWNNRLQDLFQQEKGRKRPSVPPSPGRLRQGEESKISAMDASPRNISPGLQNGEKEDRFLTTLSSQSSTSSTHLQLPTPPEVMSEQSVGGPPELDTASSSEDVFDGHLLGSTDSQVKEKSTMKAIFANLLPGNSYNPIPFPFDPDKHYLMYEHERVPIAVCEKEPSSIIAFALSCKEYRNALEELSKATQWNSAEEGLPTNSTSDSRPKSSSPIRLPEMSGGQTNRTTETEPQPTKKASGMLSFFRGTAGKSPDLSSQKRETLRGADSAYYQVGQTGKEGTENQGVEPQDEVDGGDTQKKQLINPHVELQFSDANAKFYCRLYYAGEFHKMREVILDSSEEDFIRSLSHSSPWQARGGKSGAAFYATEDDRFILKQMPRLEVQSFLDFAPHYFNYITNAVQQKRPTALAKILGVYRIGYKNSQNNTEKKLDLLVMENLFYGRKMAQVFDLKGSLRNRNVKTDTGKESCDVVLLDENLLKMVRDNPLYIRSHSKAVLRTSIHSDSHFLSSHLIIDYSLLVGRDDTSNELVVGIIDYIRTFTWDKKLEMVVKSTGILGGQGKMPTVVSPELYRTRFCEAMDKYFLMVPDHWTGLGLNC

| SMILES | inhibition at 1 µM (PIKFYVE) | delay in generation of the mature Spike-HexaPro cleavage product [1] | IC50 (PIP5K1C) | inhibition at 1 µM (PIP5K1C; 1 μM UNI418, [ATP] 10 μM) | IC50 (PIP5K1B) | inhibition at 1 µM (PIP5K1B; 1 μM UNI418, [ATP] 10 μM) | IC50 (PIP5K1A) | inhibition at 1 µM (PIP5K1A; 1 μM UNI418, [ATP] 10 μM) | autophagic flux (RPE1 cells) |
| --- | --- | --- | --- | --- | --- | --- | --- | --- | --- |
| c1ccc(-c2cc(Nc3nc(-c4ccncc4)nc4ccccc34)n[nH]2)cc1 [UNI418, N -(5-phenyl-1 H -pyrazol-3-yl)-2-(4-pyridinyl)-4-quinazolinamine] | 100% | 3 h | 60.1 nM | 93% | 60.7 nM | 93% | 255 nM | 67% | markedly inhibited |
| Cc1cccc(/C=N/Nc2cc(N3CCOCC3)nc(OCCc3ccccn3)n2)c1 [apilimod] | 100% | – | – | – | – | – | – | – | – |
